{"source": "patent US10308656B2", "about": "“Small molecule inhibitors of Ku70/80 and uses thereof” (ARIZONA BOARD OF REGENTS ON BEHALF OF THE UNIVERSITY OF …, priority 2015, dated 2019)", "key": {"[1]": {"target": "Ku70/80 heterodimer-DNA interaction (Homo sapiens, UniProt P12956+P13010)", "sequence (P12956 whole entry)": "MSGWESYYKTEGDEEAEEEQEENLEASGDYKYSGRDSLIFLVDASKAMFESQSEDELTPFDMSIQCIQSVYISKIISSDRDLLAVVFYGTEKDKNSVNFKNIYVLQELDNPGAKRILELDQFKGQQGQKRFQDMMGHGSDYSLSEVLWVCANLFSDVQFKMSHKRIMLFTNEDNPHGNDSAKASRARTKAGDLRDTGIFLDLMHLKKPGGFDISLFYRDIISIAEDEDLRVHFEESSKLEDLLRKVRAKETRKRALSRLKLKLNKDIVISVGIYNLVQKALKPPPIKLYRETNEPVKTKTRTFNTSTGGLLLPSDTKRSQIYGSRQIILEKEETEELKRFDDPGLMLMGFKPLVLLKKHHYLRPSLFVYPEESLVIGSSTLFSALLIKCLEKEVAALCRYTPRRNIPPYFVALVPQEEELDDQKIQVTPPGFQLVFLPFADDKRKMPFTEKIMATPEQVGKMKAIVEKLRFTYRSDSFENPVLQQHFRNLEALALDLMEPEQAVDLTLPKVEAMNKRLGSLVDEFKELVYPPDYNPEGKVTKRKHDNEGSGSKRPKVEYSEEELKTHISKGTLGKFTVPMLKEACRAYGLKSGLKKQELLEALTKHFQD", "sequence (P13010 whole entry)": "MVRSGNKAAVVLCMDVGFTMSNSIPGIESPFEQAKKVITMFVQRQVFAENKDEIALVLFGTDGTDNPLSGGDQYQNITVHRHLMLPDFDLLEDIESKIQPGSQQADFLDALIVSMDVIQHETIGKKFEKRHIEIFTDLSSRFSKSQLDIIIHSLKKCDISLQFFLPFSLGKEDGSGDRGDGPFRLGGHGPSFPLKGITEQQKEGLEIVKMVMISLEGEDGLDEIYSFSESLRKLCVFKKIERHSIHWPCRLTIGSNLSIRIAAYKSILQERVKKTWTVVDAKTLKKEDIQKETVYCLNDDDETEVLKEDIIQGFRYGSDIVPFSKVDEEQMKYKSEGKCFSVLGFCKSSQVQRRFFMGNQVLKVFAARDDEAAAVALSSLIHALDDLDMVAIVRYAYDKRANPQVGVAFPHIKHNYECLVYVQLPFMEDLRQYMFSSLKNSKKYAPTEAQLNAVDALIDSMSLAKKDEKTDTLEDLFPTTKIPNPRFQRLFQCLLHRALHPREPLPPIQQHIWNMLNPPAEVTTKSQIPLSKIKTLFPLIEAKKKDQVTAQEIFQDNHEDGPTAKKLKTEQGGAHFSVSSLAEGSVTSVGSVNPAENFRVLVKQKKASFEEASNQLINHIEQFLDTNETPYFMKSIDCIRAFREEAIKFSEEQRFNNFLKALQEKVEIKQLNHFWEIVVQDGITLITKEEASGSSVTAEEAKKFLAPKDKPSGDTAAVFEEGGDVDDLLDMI", "experiment": "Electrophoretic Mobility Shift Assay (EMSA) of Ku70/80 binding to a DNA substrate", "settings": "for Disruption of Ku70/80-DNA interaction (disappearance of the band shift): compound at 100 μM in EMSA reaction", "source_text": "Next, the described ‘protomol’ was utilized as a guide to screen small molecule databases for potential inhibitors. Hits were sorted from highest to lowest docking scores and nine compounds were ultimately chosen for biological activity screening (see, Table 1). These compounds were commercially obtained and designated with a letter (A through H, and L). For initial activity screening experiments utilized an Electrophoretic Mobility Shift Assay (EMSA), in which a radioactively labeled artificial DNA substrate was incubated with a preparation of purified Ku70/80 protein, followed by non-denaturing gel electrophoresis. Interaction of Ku70/80 with DNA caused a measurable shift of the DNA band. […] Compounds C and L were further investigated for their ability to disrupt the Ku70/80 DNA interaction as well as Ku-dependent activation of the DNA-PKcs kinase.\nTherefore, a two orders of magnitude range of serial dilutions of the compounds was added to the previously described EMSA reactions. Inhibition of Ku-DNA interaction in a straight forward dose-dependent manner by compound L alone was observed (FIG. 3B). In order to quantify the relative efficiency of Ku-DNA binding for each dose of Compound L, the intensity of the Ku-DNA bands in the EMSA assay was measured and normalized those values to a number between 0 and 100, where the value 0 represents a reaction where no Ku70/80 was present and the value 100 represents a reaction where no inhibitor was added. These normalized values were subsequently plotted against the corresponding concentrations of Compound L (FIG. 3B). A logarithmic trend line was added and equations were obtained to describe the dose-response curves of Compound L in the EMSA assay. […] IC50 values in this range are generally considered to be a viable starting point for lead-finding exploits."}, "[2]": {"target": "DNA-PKCS kinase (Ku-dependent activation) (Homo sapiens, UniProt P12956+P13010)", "sequence (P12956 whole entry)": "as the sequence (P12956 whole entry) above", "sequence (P13010 whole entry)": "as the sequence (P13010 whole entry) above", "experiment": "DNA-PKCS kinase activity assay, Ku70/80-dependent in vitro phosphorylation of a p53-based peptide substrate", "type": "biochemical", "settings": "for Impairment of Ku-dependent activation of DNA-PKCS: in vitro", "source_text": "To further validate the Ku-inhibitory activity of Compound L, experiments examined its effects on Ku-dependent activation of the DNA-PKCS kinase. […] It is, however, a potent co-factor for the activation of other NHEJ enzymes, including DNA-PKCS (see, G. C. Smith, et al., Genes Dev., 13 (1999), pp. 916-934). It was therefore reasoned that disruption of the Ku-DNA interaction by Compound L should also diminish DNA-PKCS kinase activity. The DNA-PKCS kinase has multiple known downstream targets, including p53, Artemis, and DNA-PKCS itself (see, E. Weterings, et al., Cell Res., 18 (2008), pp. 114-124; G. C. Smith, et al., Genes Dev., 13 (1999), pp. 916-934). It is at present not entirely clear which targets are critical for the overall DNA repair response, but it is evident that the kinase domain of DNA-PKCS is indispensable. Experiments therefore quantified the kinase activity of a purified preparation of the DNA-PKCS protein in the presence of different concentrations of Compound L. Experiments measured the phosphorylation of a p53-based peptide substrate as an arbitrary reporter of DNA-PKCS kinase activity. The obtained in vitro DNA-PKCS kinase activities were subsequently normalized and plotted as a function of compound L concentration (FIG. 4A). Experiments observed a sharp dose-dependent inhibition of DNA-PKCS kinase activity. […] Therefore, both primary (EMSA) and secondary (DNA-PKCS activity) assays for the Ku-inhibitory potential of Compound L indicate an IC50 value in the lower micro-molar range.\nThis example compares the in vitro activity of several structural analogs of Compound L. This assay measures the effect of each compound on the in vitro activity of the DNA-PKCS kinase."}, "[3]": {"system": "DNA-PKCS SER2056 autophosphorylation in SF-767 cells", "experiment": "DNA-PKCS autophosphorylation assay (Western blot) after etoposide-induced DSBs", "type": "cell-based, human", "source_text": "In order to further examine the effects of Compound L on Ku-dependent activation of the DNA-PKCS kinase in vivo, experiments also exposed cultures of the human glioblastoma cell line SF-767 to increasing concentrations of Compound L. Upon induction of DSBs by etoposide, experiments quantified the levels of DNA-PKCS autophosphorylation at the SER2056 residue by means of Western blot analysis (FIG. 4B)."}, "[4]": {"experiment": "Radiation sensitization / cytotoxicity by MTS assay in glioblastoma cells", "type": "cell-based, human", "settings": "human, SF-767 glioblastoma cells; SF-767, up to 25 μM, MTS after six day recovery; read-out: Non-viability (toxicity of compound as single modality)", "description": "(§1) Consequently, this substance could have an effect on the efficiency of overall repair of DSBs. In order to examine this potential, experiments tested Compound L for its ability to potentiate the effects of ionizing radiation on two human cell lines: the glioblastoma cell line SF-767 (FIG. 5A), and an hTERT immortalized prostate epithelial (PrEC) cell line (see, R. Berger, et al., Cancer Res., 64 (2004), pp. 8867-8875) (FIG. 5B). Cultured cells were treated with either the compound as a single modality, ionizing radiation as a single modality or with a regimen of concurrent radiation and compound. Cell viability was measured after a six day recovery period by standard MTS assay and normalized to the untreated control (no compound or radiation). FIG. 5 presents the observed effects of each treatment modality in terms of percentage non-viable cells. The effects are plotted as a function of the compound's concentration in the culture medium.\n(§2) As expected, experiments observed a clear, dose-dependent increase in non-viable cell population with increasing concentrations of Compound L (FIG. 5, red columns). This reflects the fundamental cytotoxicity of the compound under the chosen experimental conditions. In both cell lines, toxicity of Compound L stayed low (below 5% non-viability) up to 25 μM, after which an exponential increase in cytotoxicity was observed. […] In order to exclude the possibility that this phenomenon was caused by mere additive effects, experiments calculated the sum of the effects of the single modalities (FIG. 5, purple columns) and compared the obtained values with the effects of the combination treatments. By definition, synergism is present when the effect of the combination therapy (green columns) exceeds the sum of the effects of the single modalities (purple columns). In SF-767 cells, synergism was most clearly observed between 20 and 30 μM (FIG. 5A) and in immortalized PrEC cells synergism was present in the 20-35 μM range (FIG. 5B).\n(§3) This is done by means of a standard MTS assay, measuring survival of human glioblastoma (SF767) or immortalized prostate epithelial (PrEC) cells 7 days after treatment with compounds and radiation therapy. […] The radiation-sensitizing potential of Compound L and JV761 is attributable to the ability of these compounds to suppress the activity of Ku70/80 in vivo."}, "[5]": {"system": "SF-767 glioblastoma cells", "experiment": "Radiation sensitization / cytotoxicity by MTS assay in glioblastoma cells", "type": "cell-based, human", "settings": "for Sensitization to radiation therapy (RT): human glioblastoma multiforme (GBM) cells", "description": "as §1, §2, §3"}, "[6]": {"experiment": "Radiation sensitization / cytotoxicity by MTS assay in prostate epithelial cells", "type": "cell-based, human", "settings": "human, hTERT immortalized prostate epithelial (PrEC) cells; PrEC, up to 25 μM, MTS after six day recovery; read-out: Non-viability (toxicity of compound as single modality)", "description": "as §1\n(§4) As expected, experiments observed a clear, dose-dependent increase in non-viable cell population with increasing concentrations of Compound L (FIG. 5, red columns). […] In order to exclude the possibility that this phenomenon was caused by mere additive effects, experiments calculated the sum of the effects of the single modalities (FIG. 5, purple columns) and compared the obtained values with the effects of the combination treatments. […]"}, "[7]": {"system": "hTERT immortalized prostate epithelial (PrEC) cells", "experiment": "Radiation sensitization / cytotoxicity by MTS assay in prostate epithelial cells", "type": "cell-based, human", "settings": "immortalized PrEC, concurrent compound and radiation, FIG. 5B", "description": "as §1, §4"}, "[8]": {"system": "DNA double strand break (DSB) repair in glioblastoma cells (SF767)", "experiment": "DSB repair after radiation by γ-H2AX phosphorylation", "type": "cell-based, human", "settings": "25 μM, post radiation", "description": "This repair process is dependent on active Ku70/80 and the suppression of Ku-dependent DSB repair is further proof that Compound L inhibits Ku70/80 activity. The relative amount of DSBs is measured by counting the relative intensity of a canonical DSB marker: γ-H2AX.\nRelative number of DSBs was measured by quantifying and normalizing γ-H2AX phosphorylation. […] Measured in human glioblastoma cells (SF767). Error bars represent standard error."}, "[9]": {"experiment": "Pharmacokinetic profile after bolus IP injection, plasma levels by LC-MS", "type": "in vivo, nude mice", "settings": "bolus IP 1, 3 or 5 mg/kg", "description": "A bolus IP injection of Compound L was given at either 1, 3, or 5 mg/kg and plasma levels of Compound L were determined by LC-MS."}, "[10]": {"experiment": "Tolerability and toxicity after bolus IP injection with two week follow-up", "type": "in vivo", "settings": "mice"}}, "note": "“Also recorded” adds a separate entry of the source.", "data": [{"compound": "COc1ccc(CCNc2ncc3c(=O)n(-c4cccc(F)c4)c(=O)[nH]c3n2)cc1OC", "note": "[Compound L, 7-[[2-(3,4-dimethoxyphenyl)ethyl]amino]-3-(3-fluorophenyl)pyrimido[4,5-d] pyrimidine-2,4(1H,3H)-dione]", "values": [{"measurement": "IC50", "setting": "[1]; EMSA titration, logarithmic trend line, read-out: IC50, dose needed to inhibit 50% of maximal Ku-DNA binding", "result": 3.5, "unit": "µM"}, {"measurement": "Disruption of Ku70/80-DNA interaction (disappearance of the band shift)", "setting": "[1]", "result": "disruption of the Ku70/80-DNA interaction; also recorded: screen positive for disruption of Ku70/80-DNA interaction; also recorded: capable of disrupting the binding of Ku to DNA"}, {"measurement": "Impairment of Ku-dependent activation of DNA-PKCS", "setting": "[2]", "result": "capable of disrupting the binding of Ku to DNA as well as the activation of DNA-PKCS"}, {"measurement": "IC50", "setting": "[2]; p53-based peptide substrate, logarithmic trend line", "result": 2.5, "unit": "µM"}, {"measurement": "Total DNA-PKCS level", "setting": "[3]; Western blot", "result": "not suppressed"}, {"measurement": "DNA-PKCS autophosphorylation at the SER2056 residue", "setting": "[3]; increasing doses, etoposide", "result": "sharp decline"}, {"measurement": "cytotoxicity at 6 days", "setting": "[4]", "result": "< 5", "unit": "%"}, {"measurement": "Concentration range of synergistic radiation-sensitization", "setting": "[5]; human cancer cells, 4Gy radiation, MTS 7 days after treatment, FIG. 9", "result": "20 to 30", "unit": "µM"}, {"measurement": "Sensitization to radiation therapy (RT)", "setting": "[5]", "result": "synergistically sensitize"}, {"measurement": "cytotoxicity at 6 days", "setting": "[6]", "result": "< 5", "unit": "%"}, {"measurement": "Concentration range of synergism with radiation", "setting": "[7]", "result": "20 to 35", "unit": "µM"}, {"measurement": "DSB repair kinetics (γ-H2AX)", "setting": "[8]", "result": "significantly delayed"}, {"measurement": "Plasma levels versus dose", "setting": "[9]; LC-MS", "result": "directly proportional to dose"}, {"measurement": "half-life", "setting": "[9]; mouse, plasma, nude mice", "result": "~1.5", "unit": "h"}, {"measurement": "Histopathology and comprehensive blood panels", "setting": "[10]; after two weeks", "result": "no abnormalities; also recorded: normal"}, {"measurement": "Signs of toxicity", "setting": "[10]; bolus IP, acute and two week follow-up", "result": "did not reveal any acute toxicity; also recorded: did not reveal signs of toxicity"}, {"measurement": "Tolerability", "setting": "[10]; single bolus IP injection up to 5 mg/kg", "result": "well tolerated"}]}, {"compound": "COc1ccc(N2CCN(Cc3nc(N)nc(Nc4cccc(C)c4)n3)CC2)cc1", "note": "[Compound C, 4-[[4-(4-methoxyphenyl)piperazin-1-yl]methyl]-6-(m-tolyimino)-5H-1,3,5-triazin-2-amine]", "values": [{"measurement": "Disruption of Ku70/80-DNA interaction (disappearance of the band shift)", "setting": "[1]", "result": "disruption of the Ku70/80-DNA interaction; also recorded: screen positive for disruption of Ku70/80-DNA interaction; also recorded: capable of disrupting the binding of Ku to DNA"}, {"measurement": "Impairment of Ku-dependent activation of DNA-PKCS", "setting": "[2]", "result": "capable of disrupting the binding of Ku to DNA as well as the activation of DNA-PKCS"}, {"measurement": "Sensitization to radiation therapy (RT)", "setting": "[5]", "result": "synergistically sensitize"}]}]}
